Experimental data taken from ChEMBL document CHEMBL1153448, “Diether derivatives of homo- or substituted piperidines as non-imidazole histamine H3 receptor ligands” (Bioorg Med Chem, 2009).

Molecular target: Histamine H3 receptor (Homo sapiens, UniProt Q9Y5N1)
Test: Displacement of [125I]Iodoproxyfran from human histamine H3 receptor expressed in HEK293 cells
Format: cell-based

Chain of Histamine H3 receptor (Homo sapiens, UniProt Q9Y5N1) (Q9Y5N1 whole entry): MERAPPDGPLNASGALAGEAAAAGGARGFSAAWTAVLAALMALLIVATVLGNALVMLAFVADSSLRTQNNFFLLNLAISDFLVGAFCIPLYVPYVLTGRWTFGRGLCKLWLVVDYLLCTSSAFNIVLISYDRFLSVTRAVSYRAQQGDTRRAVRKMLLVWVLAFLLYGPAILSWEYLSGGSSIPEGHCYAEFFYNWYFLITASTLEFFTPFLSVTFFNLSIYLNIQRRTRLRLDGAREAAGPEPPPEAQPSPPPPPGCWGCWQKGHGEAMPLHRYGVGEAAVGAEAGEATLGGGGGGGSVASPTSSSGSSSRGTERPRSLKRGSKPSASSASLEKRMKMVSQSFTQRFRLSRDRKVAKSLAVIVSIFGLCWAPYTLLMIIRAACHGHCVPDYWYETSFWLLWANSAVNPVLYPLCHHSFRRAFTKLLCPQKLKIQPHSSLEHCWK

Row | Compound | Ki [nM]
1 | COc1cccc(OCCOCCCN2CCCC(C)C2)c1 (stereo not drawn) | 14.8
2 | CC1CCCN(CCCOCCOc2ccc(C(C)(C)C)cc2)C1 (stereo not drawn) | 62
3 | COc1cccc(OCCCOCCCN2CCCC(C)C2)c1 (stereo not drawn) | 27.3
4 | COc1cccc(OCCCOCCCN2CCC(C)CC2)c1 | 49
5 | COc1cccc(OCCCOCCCN2CCCCCC2)c1 | 18.6
6 | CC1CCN(CCCOCCCOc2ccc(Cl)cc2)CC1 | 27.9
7 | CC1CCN(CCCOCCCOc2ccc(C(C)(C)C)cc2)CC1 | 51

The next lines start with the values.

Row | Ki [nM] | Compound
8 | 12.8 | CC1CCCN(CCCOCCCOc2ccc(C(C)(C)C)cc2)C1 (stereo not drawn)
9 | 12.5 | COc1cccc(OCCOCCCN2CCC(C)CC2)c1
10 | 7.7 | CC(C)(C)c1ccc(OCCCOCCCN2CCCCCC2)cc1
11 | 7.2 | COc1cccc(OCCOCCCN2CCCCCC2)c1
12 | 3.2 | CC1CCCN(CCCOCCCOc2ccc(Cl)cc2)C1 (stereo not drawn)

Molecular target: Histamine H3 receptor (Rattus norvegicus, UniProt Q9QYN8)
Sequence (Q9QYN8 whole entry): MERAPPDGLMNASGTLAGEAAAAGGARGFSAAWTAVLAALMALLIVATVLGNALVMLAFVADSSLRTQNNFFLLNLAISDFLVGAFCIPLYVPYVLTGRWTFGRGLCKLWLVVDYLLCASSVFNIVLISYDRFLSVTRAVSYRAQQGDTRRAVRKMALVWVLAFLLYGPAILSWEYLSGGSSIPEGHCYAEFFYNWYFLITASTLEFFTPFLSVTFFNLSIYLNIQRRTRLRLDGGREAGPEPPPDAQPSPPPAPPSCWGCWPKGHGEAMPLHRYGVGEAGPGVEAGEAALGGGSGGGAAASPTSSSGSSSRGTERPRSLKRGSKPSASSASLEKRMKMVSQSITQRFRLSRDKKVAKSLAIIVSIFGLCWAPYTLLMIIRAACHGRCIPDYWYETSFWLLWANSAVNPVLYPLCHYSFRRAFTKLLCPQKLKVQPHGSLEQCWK
Test: Binding affinity to histamine H3 receptor in rat cerebral cortex
Format: tissue-based

Row | Ki [nM] | Compound
13 | 17 | Clc1ccc(CCCOCCCN2CCCCC2)cc1 [PITOLISANT]
